Data set [1] can be described thus: Dissolution rate of HCTZ from tablet matrix. It counts as physicochemical. The settings on record: from a dissolving matrix as compared with dissolution from a disintegrating tablet.
The conditions of data set [2]: physiological pH range of the gastrointestinal tract, pH 1 to 7; free acid form; cited from earlier work.

`NS(=O)(=O)c1cc2c(cc1Cl)NCNS2(=O)=O` [HCTZ, 6-chloro-3,4-dihydro-2H-1,2,4-benzothiadiazine-7-sulfonamide-1,1-dioxide]: the “dissolution rate of HCTZ” value in data set [1] is reported as “reduced dissolution rate”.
Take `CCCc1nc2c(C)cc(-c3nc4ccccc4n3C)cc2n1Cc1ccc(-c2ccccc2C(=O)O)cc1` [Telmisartan, 4′-[2-n-propyl-4-methyl-6-(1-methylbenzimidazol-2-yl)-benzimidazol-1-ylmethyl]-biphenyl-2-carboxylic acid]: the “solubility in aqueous systems” value in data set [2] is listed as “very poor solubility”.

Values taken from patent publication US20050186274A1, “Multilayer tablet” (Boehringer Ingelheim International GmbH, priority 2004, published 2005).
